According to patent US20230146675A1, “PYRIMIDO[5,4-d]PYRIMIDINE DERIVATIVES AS ENT INHIBITORS FOR THE TREATMENT OF CANCERS, AND COMBINATION THEREOF WITH ADENOSINE RECEPTOR ANTAGONISTS” (ITEOS BELGIUM SA, priority 2020, published 2023):

Target: T1, human ENT1 (Homo sapiens, UniProt Q99808)
T1 sequence (Q99808 1-456): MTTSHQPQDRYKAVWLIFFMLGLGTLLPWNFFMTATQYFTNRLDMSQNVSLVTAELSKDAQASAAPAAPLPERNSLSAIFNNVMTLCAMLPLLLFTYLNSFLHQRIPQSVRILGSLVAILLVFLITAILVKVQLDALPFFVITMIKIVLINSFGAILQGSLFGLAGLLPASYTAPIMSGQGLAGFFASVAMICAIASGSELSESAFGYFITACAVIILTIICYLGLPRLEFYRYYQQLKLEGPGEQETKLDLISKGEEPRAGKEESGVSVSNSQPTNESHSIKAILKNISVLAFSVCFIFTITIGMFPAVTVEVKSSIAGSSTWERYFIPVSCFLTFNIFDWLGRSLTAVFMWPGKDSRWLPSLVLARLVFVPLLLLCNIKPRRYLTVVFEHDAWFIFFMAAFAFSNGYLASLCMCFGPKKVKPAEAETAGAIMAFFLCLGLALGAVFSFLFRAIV
Assay: ENT1 binding assay (competition with Sahenta-DY647 on JAR cells)
Set-up: JAR cells expressing ENT1 were bought from ATCC; host or cells: JAR cells
Details: binned IC50
In short: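 JAR cells were incubated with test compounds and the fluorescent ligand Sahenta-DY647 in competition. Plates were washed twice by centrifugation (4 min, 400 rcf, 4 °C). Binding potency was derived from the final fluorescence.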

| SMILES | IC50 [nM] |
| --- | --- |
| COCCN(CCOC)c1nc(N2CCC(OC)CC2)c2nc(N(CCOC)CCOC)nc(NCc3cccc(F)c3)c2n1 [Compound 142, N4-(3-fluorobenzyl)-N2,N2,N6,N6-tetrakis(2-methoxyethyl)-8-(4-methoxypiperidin-1-yl)pyrimido[5,4-d]pyrimidine-2,4,6-triamine] | < 100 |
| COCCN(CCOC)c1nc(N2CCC(OC)CC2)c2nc(N(CCOC)CCOC)nc(NCc3cccc(OC(F)(F)F)c3)c2n1 [Compound 143, N2,N2,N6,N6-tetrakis(2-methoxyethyl)-8-(4-methoxypiperidin-1-yl)-N4-(3-(trifluoromethoxy)benzyl)pyrimido[5,4-d]pyrimidine-2,4,6-triamine] | < 100 |
| COCCN(CCOC)c1nc(N2CCC(OC)CC2)c2nc(N(CCOC)CCOC)nc(NCc3cccc(OC(F)F)c3)c2n1 [Compound 144, N4-(3-(difluoromethoxy)benzyl)-N2,N2,N6,N6-tetrakis(2-methoxyethyl)-8-(4-methoxypiperidin-1-yl)pyrimido[5,4-d]pyrimidine-2,4,6-triamine] | 100 to 500 |
| COCCN(CCOC)c1nc(N2CCC(OC)CC2)c2nc(N(CCOC)CCOC)nc(NCc3cccc(-n4cccn4)c3)c2n1 [Compound 146, N4-(3-(1H-pyrazol-1-yl)benzyl)-N2,N2,N6,N6-tetrakis(2-methoxyethyl)-8-(4-methoxypiperidin-1-yl)pyrimido[5,4-d]pyrimidine-2,4,6-triamine] | 100 to 500 |
| COCCN(CCOC)c1nc(N2CCC(OC)CC2)c2nc(N(CCOC)CCOC)nc(NCc3ccnc(N)c3)c2n1 [Compound 147, N4-((2-aminopyridin-4-yl)methyl)-N2,N2,N6,N6-tetrakis(2-methoxyethyl)-8-(4-methoxypiperidin-1-yl)pyrimido[5,4-d]pyrimidine-2,4,6-triamine] | 500 to 1000 |
| COCCN(CCOC)c1nc(N2CCC(OC)CC2)c2nc(N(CCOC)CCOC)nc(NCc3cccc(S(C)(=O)=O)c3)c2n1 [Compound 148, N2,N2,N6,N6-tetrakis(2-methoxyethyl)-8-(4-methoxypiperidin-1-yl)-N4-(3-(methylsulfonyl)benzyl)pyrimido[5,4-d]pyrimidine-2,4,6-triamine] | 100 to 500 |
| COCCN(CCOC)c1nc(N2CCC(OC)CC2)c2nc(N(CCOC)CCOC)nc(NCc3ccc(Cl)c(C#N)c3)c2n1 [Compound 150, 5-(((2,6-bis(bis(2-methoxyethyl)amino)-8-(4-methoxypiperidin-1-yl)pyrimido[5,4-d]pyrimidin-4-yl)amino)methyl)-2-chlorobenzonitrile] | < 100 |
| COCCN(CCOC)c1nc(N2CCC(OC)CC2)c2nc(N(CCOC)CCOC)nc(OCc3cc(OC)cc(OC)c3)c2n1 [Compound 152, 4-((3,5-dimethoxybenzyl)oxy)-N2,N2,N6,N6-tetrakis(2-methoxyethyl)-8-(4-methoxypiperidin-1-yl)pyrimido[5,4-d]pyrimidine-2,6-diamine] | < 100 |
| COCCN(CCOC)c1nc(N2CCC(OC)CC2)c2nc(N(CCOC)CCOC)nc(OCc3cccc(C#N)c3)c2n1 [Compound 156, 3-(((2,6-bis(bis(2-methoxyethyl)amino)-8-(4-methoxypiperidin-1-yl)pyrimido[5,4-d]pyrimidin-4-yl)oxy)methyl)benzonitrile] | 100 to 500 |
| COCCN(CCOC)c1nc(N2CCC(OC)CC2)c2nc(N(CCOC)CCOC)nc(OCc3ccc(F)c(OC)c3)c2n1 [Compound 157, 4-((4-fluoro-3-methoxybenzyl)oxy)-N2,N2,N6,N6-tetrakis(2-methoxyethyl)-8-(4-methoxypiperidin-1-yl)pyrimido[5,4-d]pyrimidine-2,6-diamine] | < 100 |
| COCCN(CCOC)c1nc(N2CCC(OC)CC2)c2nc(N(CCOC)CCOC)nc(OCc3cncc(C#N)c3)c2n1 [Compound 158, 5-(((2,6-bis(bis(2-methoxyethyl)amino)-8-(4-methoxypiperidin-1-yl)pyrimido[5,4-d]pyrimidin-4-yl)oxy)methyl)nicotinonitrile] | 100 to 500 |
| COCCN(CCOC)c1nc(N2CCC(OC)CC2)c2nc(N(CCOC)CCOC)nc(OCc3cccc(-c4noc(C)n4)c3)c2n1 [Compound 159, N2,N2,N6,N6-tetrakis(2-methoxyethyl)-4-(4-methoxypiperidin-1-yl)-8-((3-(5-methyl-1,2,4-oxadiazol-3-yl)benzyl)oxy)pyrimido[5,4-d]pyrimidine-2,6-diamine] | 100 to 500 |
| COCCN(CCOC)c1nc(N2CCC(OC)CC2)c2nc(N(CCOC)CCOC)nc(NCc3ccc(C)o3)c2n1 [Compound 161, N2,N2,N6,N6-tetrakis(2-methoxyethyl)-8-(4-methoxypiperidin-1-yl)-N4-((5-methylfuran-2-yl)methyl)pyrimido[5,4-d]pyrimidine-2,4,6-triamine] | 100 to 500 |
| COCCN(CCOC)c1nc(N2CCC(OC)CC2)c2nc(N(CCOC)CCOC)nc(NCc3cc(C)no3)c2n1 [Compound 162, N2,N2,N6,N6-tetrakis(2-methoxyethyl)-8-(4-methoxypiperidin-1-yl)-N4-((3-methylisoxazol-5-yl)methyl)pyrimido[5,4-d]pyrimidine-2,4,6-triamine] | 500 to 1000 |

Results, then the compound that gave them:

| IC50 [nM] | SMILES |
| --- | --- |
| < 100 | COCCN(CCOC)c1nc(N2CCC(OC)CC2)c2nc(N(CCOC)CCOC)nc(NCc3cccc(C#N)c3)c2n1 [Compound 145, 3-(((2,6-bis(bis(2-methoxyethyl)amino)-8-(4-methoxypiperidin-1-yl)pyrimido[5,4-d]pyrimidin-4-yl)amino)methyl)benzonitrile] |
| 100 to 500 | COCCN(CCOC)c1nc(N2CCC(OC)CC2)c2nc(N(CCOC)CCOC)nc(NCc3cccc(-c4ncco4)c3)c2n1 [Compound 151, N2,N2,N6,N6-tetrakis(2-methoxyethyl)-8-(4-methoxypiperidin-1-yl)-N4-(3-(oxazol-2-yl)benzyl)pyrimido[5,4-d]pyrimidine-2,4,6-triamine] |
| < 100 | COCCN(CCOC)c1nc(N2CCC(OC)CC2)c2nc(N(CCOC)CCOC)nc(OCc3cccc(OC)c3)c2n1 [Compound 153, 4-((3-methoxybenzyl)oxy)-N2,N2,N6,N6-tetrakis(2-methoxyethyl)-8-(4-methoxypiperidin-1-yl)pyrimido[5,4-d]pyrimidine-2,6-diamine] |
| < 100 | COCCN(CCOC)c1nc(N2CCC(OC)CC2)c2nc(N(CCOC)CCOC)nc(OCc3ccc(Cl)c(Cl)c3)c2n1 [Compound 154, 4-((3,4-dichlorobenzyl)oxy)-N2,N2,N6,N6-tetrakis(2-methoxyethyl)-8-(4-methoxypiperidin-1-yl)pyrimido[5,4-d]pyrimidine-2,6-diamine] |
| < 100 | COCCN(CCOC)c1nc(N2CCC(OC)CC2)c2nc(N(CCOC)CCOC)nc(OCc3cccc(Cl)c3)c2n1 [Compound 155, 4-((3-chlorobenzyl)oxy)-N2,N2,N6,N6-tetrakis(2-methoxyethyl)-8-(4-methoxypiperidin-1-yl)pyrimido[5,4-d]pyrimidine-2,6-diamine] |
| 500 to 1000 | COCCN(CCOC)c1nc(N2CCC(OC)CC2)c2nc(N(CCOC)CCOC)nc(NCc3cnc(Cl)s3)c2n1 [Compound 160, N4-((2-chlorothiazol-5-yl)methyl)-N2,N2,N6,N6-tetrakis(2-methoxyethyl)-8-(4-methoxypiperidin-1-yl)pyrimido[5,4-d]pyrimidine-2,4,6-triamine] |
